# Article PMC10241523 (The Journal of Venomous Animals and Toxins Including …, 2023)
# Like-named read-outs stand apart in the source and are kept apart here. Where a SMILES comes first, the peptide text is derived from it. Bridges are numbered along the chain shown (N, C = ends).
# How the values were obtained:
# [1] = test system: human NaV1.7 (hNaV1.7); format: cell-based; settings: 10 μM
# [2] = test system: potassium channel currents in rat DRG neurons; format: cell-based; settings: 10 μM
# [3] = molecular target: T1, human CaV1.2 (hCaV1.2) (Homo sapiens, UniProt Q13936); settings: pH 7.4
# T1 sequence (Q13936 whole entry, looked up): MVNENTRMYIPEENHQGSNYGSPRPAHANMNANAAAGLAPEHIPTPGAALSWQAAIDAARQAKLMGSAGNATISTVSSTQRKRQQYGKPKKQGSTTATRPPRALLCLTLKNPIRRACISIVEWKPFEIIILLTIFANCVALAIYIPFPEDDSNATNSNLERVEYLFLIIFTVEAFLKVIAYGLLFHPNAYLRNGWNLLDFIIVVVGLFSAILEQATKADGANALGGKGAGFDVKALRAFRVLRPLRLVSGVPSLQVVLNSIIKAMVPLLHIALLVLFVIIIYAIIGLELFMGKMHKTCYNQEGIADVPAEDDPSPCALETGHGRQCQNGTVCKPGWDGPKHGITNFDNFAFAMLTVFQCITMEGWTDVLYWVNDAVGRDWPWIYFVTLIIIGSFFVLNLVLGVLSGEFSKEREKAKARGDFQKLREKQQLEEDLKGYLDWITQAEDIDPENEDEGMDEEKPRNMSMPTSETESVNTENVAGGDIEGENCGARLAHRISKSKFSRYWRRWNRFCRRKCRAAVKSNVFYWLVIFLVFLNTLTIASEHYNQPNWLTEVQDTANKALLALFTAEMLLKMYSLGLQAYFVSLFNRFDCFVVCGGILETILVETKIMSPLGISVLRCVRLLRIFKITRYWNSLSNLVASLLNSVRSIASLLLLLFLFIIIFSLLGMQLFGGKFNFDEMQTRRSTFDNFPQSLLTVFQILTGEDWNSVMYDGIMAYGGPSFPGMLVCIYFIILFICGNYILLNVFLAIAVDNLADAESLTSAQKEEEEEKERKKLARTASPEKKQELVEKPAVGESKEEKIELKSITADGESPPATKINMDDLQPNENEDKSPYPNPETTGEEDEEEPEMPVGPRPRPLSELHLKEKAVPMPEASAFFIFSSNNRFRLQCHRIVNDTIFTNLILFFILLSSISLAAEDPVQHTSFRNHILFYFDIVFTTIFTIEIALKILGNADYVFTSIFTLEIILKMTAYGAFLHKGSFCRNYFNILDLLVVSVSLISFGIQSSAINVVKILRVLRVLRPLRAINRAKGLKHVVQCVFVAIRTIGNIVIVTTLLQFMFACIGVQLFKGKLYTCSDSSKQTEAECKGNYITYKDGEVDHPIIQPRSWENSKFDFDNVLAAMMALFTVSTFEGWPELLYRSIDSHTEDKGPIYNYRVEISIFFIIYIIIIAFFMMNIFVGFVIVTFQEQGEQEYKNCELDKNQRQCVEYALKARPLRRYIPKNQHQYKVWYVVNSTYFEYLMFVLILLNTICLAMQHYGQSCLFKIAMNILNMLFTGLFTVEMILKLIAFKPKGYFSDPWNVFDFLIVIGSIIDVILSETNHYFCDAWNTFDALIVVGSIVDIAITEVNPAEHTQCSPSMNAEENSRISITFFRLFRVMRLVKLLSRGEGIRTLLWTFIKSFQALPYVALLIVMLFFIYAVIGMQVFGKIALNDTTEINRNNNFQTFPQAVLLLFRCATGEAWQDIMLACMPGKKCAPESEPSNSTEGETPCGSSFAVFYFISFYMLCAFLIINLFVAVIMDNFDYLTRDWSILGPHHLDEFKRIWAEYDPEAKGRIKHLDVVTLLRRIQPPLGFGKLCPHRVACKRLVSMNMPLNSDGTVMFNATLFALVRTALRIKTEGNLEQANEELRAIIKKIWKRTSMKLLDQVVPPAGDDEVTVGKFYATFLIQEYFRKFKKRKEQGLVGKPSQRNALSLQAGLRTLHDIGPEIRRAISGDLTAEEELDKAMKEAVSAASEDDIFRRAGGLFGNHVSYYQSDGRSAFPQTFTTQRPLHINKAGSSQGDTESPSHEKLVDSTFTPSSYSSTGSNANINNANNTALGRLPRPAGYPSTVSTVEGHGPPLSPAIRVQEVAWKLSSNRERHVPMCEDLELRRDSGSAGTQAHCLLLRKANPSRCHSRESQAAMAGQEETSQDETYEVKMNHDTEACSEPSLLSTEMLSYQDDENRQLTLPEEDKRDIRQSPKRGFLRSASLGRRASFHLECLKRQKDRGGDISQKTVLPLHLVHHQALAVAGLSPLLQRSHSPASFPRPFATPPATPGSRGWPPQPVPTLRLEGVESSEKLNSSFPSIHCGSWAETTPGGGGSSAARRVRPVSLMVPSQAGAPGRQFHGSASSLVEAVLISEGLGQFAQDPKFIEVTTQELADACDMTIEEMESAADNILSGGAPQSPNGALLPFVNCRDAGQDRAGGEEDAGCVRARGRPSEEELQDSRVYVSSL
# [4] = molecular target: T1, human CaV1.2 (hCaV1.2); assay: cell-based; settings: HEK293, read-out: inhibition of hCaV1.2 currents
# [5] = test system: human CaV2.2 (hCaV2.2); format: cell-based; settings: 10 μM
# [6] = test system: Kunming mice; settings: mouse, in vivo
# [7] = test system: hNaV1.8; format: cell-based, human
# [8] = test system: sodium channel currents in rat DRG neurons; format: cell-based; settings: 10 μM; n = 3
# [9] = test system: human NaV1.3 (hNaV1.3); format: cell-based; settings: 10 μM
# [10] = test system: calcium channel currents in rat DRG neurons; format: cell-based; settings: 10 μM
# [11] = test system: ND7/23 cells; settings: 48 h
# [12] = test system: voltage-gated calcium channels; settings: cited from earlier work
# [13] = test system: calcium currents; settings: cited from earlier work
compound,measurement,setting,value
"CC[C@H](C)[C@H](NC(=O)[C@@H]1CSSC[C@@H]2NC(=O)[C@H](Cc3ccc(O)cc3)NC(=O)[C@H]([C@@H](C)CC)NC(=O)[C@H](C(C)C)NC(=O)CNC(=O)[C@H](CC(C)C)NC(=O)[C@H](CC(C)C)NC(=O)[C@H](CO)NC(=O)[C@H](C)NC(=O)[C@@H]3CCCN3C(=O)[C@@H]3CSSC[C@H](NC(=O)[C@H]([C@@H](C)CC)NC(=O)[C@H](CC(C)C)NC(=O)CNC(=O)[C@H](CCC(=O)O)NC(=O)[C@H](CSSC[C@H](NC(=O)[C@@H](N)CC(=O)O)C(=O)N[C@@H](Cc4c[nH]cn4)C(=O)N[C@@H](CCC(=O)O)C(=O)N[C@@H](CCCNC(=N)N)C(=O)N[C@@H](Cc4c[nH]c5ccccc45)C(=O)N[C@@H](CC(=O)O)C(=O)N[C@@H](Cc4c[nH]c5ccccc45)C(=O)N3)NC2=O)C(=O)N[C@@H](Cc2ccccc2)C(=O)N[C@@H]([C@@H](C)CC)C(=O)N[C@@H](C)C(=O)N[C@@H](Cc2ccccc2)C(=O)N1)C(=O)O [Tx6.7] (H-DCHERWDWCPASLLGVIYCCEGLICFIAFCI-OH; disulfide 2-20, 9-25, 19-30)",effects on hNaV1.7 currents,[1],no obvious effects
same,inhibition of peak potassium currents,[2],22.33 ± 7.81%
same,IC50,[3],9.63 ± 1.12 µM
same,inhibition at 10 µM,[4],56.6 ± 3.2%
same,inhibition of hCaV2.2 currents,[5],24.67 ± 0.91%
same,pain threshold,[6],increased
same,pain threshold increment percentage (maximum),[6],98.91%
same,time of maximum analgesic effect,[6],2 h
same,inhibition of hNaV1.8 currents,[7],7.30 ± 3.38%
same,inhibitory effects on the sodium currents in rat DRG neurons,[8],no inhibitory effects
same,"shift in the current-voltage relationship, sodium currents",[8],did not induce a shift in the current-voltage relationship
same,effects on hNaV1.3 currents,[9],no obvious effects
same,inhibition of peak calcium currents,[10],59.29 ± 2.34%
same,"shift in the current-voltage relationship, calcium currents",[10]; n = 3,did not induce a shift in the current-voltage relationship of calcium currents
same,cytotoxicity against ND7/23 cells,[11],no significant cytotoxicity
same,Cell viability,[11]; 0.01 μM,101.95%
same,Cell viability,[11]; 0.1 μM,105.01%
same,Cell viability,[11]; 1 μM,99.18%
same,Cell viability,[11]; 10 μM,98.60%
same,Cell viability,[11]; 100 μM,94.80%
same,Cell viability at all detected concentrations,[11]; 100 μM,more than 94%
Ziconotide,block of voltage-gated calcium channels (ω family),[12],blockers of voltage-gated calcium channels
same,analgesic effect compared with Tx6.7,[6],better analgesic effect than Tx6.7
same,inhibition of calcium currents (ω family conotoxins),[13],inhibiting calcium currents
